ChEMBL document CHEMBL1158947, “Novel Bishomoscalarane Sesterterpenes from the Sponge Phyllospongia foliascens” (J Nat Prod, 1991)
≈ marks a conversion by molar mass, not a printed value. Calls of active or inactive are those of the source. The rule behind the calls is not given here.

System: P388
Test: Cytotoxicity against mouse P388 cells
Format: functional, cell-based

| SMILES | IC50 [µg/mL] | Activity |
| --- | --- | --- |
| CC[C@@]1(C)CCC[C@]2(C)[C@H]3C[C@H](O)[C@]4(C)[C@H]5C=CC(=O)C5=CC[C@H]4[C@]3(C)CC[C@@H]12 [PHYLLOFENONE B] | 5 (≈ 12.6 µM) |  |
| CC[C@@]1(C)CCC[C@]2(C)[C@H]3C[C@H](O)[C@]4(C)C5=C(CC[C@H]4[C@]3(C)CC[C@@H]12)[C@H](C)OC5=O |  | inactive |
| CC[C@@]1(C)CCC[C@]2(C)[C@H]3CC(=O)[C@]4(C)[C@H]5C(=O)O[C@@H](C)[C@@H]5[C@@H](O)C[C@H]4[C@]3(C)CC[C@@H]12 |  | inactive |
